Assay results as given in patent US7884067B2, “Peptides derived from cadherin and methods of use thereof” (Mount Sinai School of Medicine of New York University, priority 2001, dated 2011).

B1: N-Cad/CTF2: chicken cytoplasmic domain of N-cadherin (N-Cad/CTF2) inserted into vector pECE, expressed in L cells (protein)
chain: KRRDKERQAKQLLIDPEDDVRDNILKYDEEGGGEEDQDYDLSQLQQPDTVEPDAIKPVGIRRLDERPIHAEPQYPVRSAAPHPGDIGDFINEGLKAADNDPTAPPYDSLLVFDYEGSGSTAGSLSSLNSSSSGGEQDYDYLNDWGPRFKKLADMYGGGDD

Assays:
N-cadherin = N-cadherin processing in fibroblast cultures (Western blot, C32); assay type: cell-based, mouse; settings: WT fibroblasts, L-685,458 (0.5 μM), 16 hours
Procedure: Extracts from PS1+/+ or PS1−/− mouse embryos were probed on WBs with either anti-cytoplasmic N-cadherin antibody (FIG. 7A, upper panel) or anti-PS I/CTF antibody 33B10 (FIG. 7A, lower panel). Extracts from PS1+/+ or PS1−/− fibroblast cultures were incubated for 16 hours in the absence or presence of DMSO, L-685,458 (0.5 μM) and probed on WBs with either C32 or 33B10 antibodies.

[1] = test system: E-cadherin/catenin cytoskeletal complex; experiment: Ionomycin-induced CAJ disassembly in A431 cells, subcellular fractionation and Western blot; assay type: cell-based, human; settings: 30 minutes preincubation with L-685,458, then ionomycin
Procedure: Subcellular fractionation. Confluent A431 cells (one 100 mm dish) were rinsed and scraped with 4° C. phosphate-buffered saline (PBS). Cells were then placed into 1 ml of buffer A (20 mM Tris-HCl [pH 7.5], 0.25 M sucrose, 10 mM EGTA, 2 mM EDTA, 1× Complete protease inhibitor cocktail, Roche), passed through a 27 gauge needle 10 times, and the obtained cell lysate was centrifuged at 500×g for 10 min at 4° C. The supernatant was then centrifuged at 120,000×g for 45 min at 4° C. to separate the cytosolic and crude membrane fractions. The pellet (crude membrane fraction) was washed twice with buffer A and resuspended by sonication in […] of buffer A containing 1% Triton X-100. The suspension was incubated at 4° C. for 30 min and then centrifuged at 120,000×g for 45 min at 4° C. to separate the membrane and Triton X-100-insoluble fractions. The pellet (Triton X-100-insoluble fraction) was washed twice with buffer A and solubilized by sonication in RIPA buffer. […] of proteins from the different fraction were analyzed by SDS-PAGE.
In stable cell-cell adhesion, the E-cadherin/β-catenin complex of the CAJ is anchored to the actin cytoskeleton via catenin and this association is manifested by the insolubility of the complex components in Triton X-100 (Baki et al., (2001)). Induction of apoptosis or calcium influx disrupts cadherin-mediated cell-cell adhesion by cleaving cadherin and disassembling the CAJ complexes. To determine whether the γ-secretase cleavage of E-cadherin is involved in the CAJ disassembly, calcium influx was induced with ionomycin (10 μM) in A431 cells preincubated for 30 minutes in the absence or presence of the γ-secretase inhibitor L-685,458. Cell extracts were fractionated, and analyzed on Western blots with antibodies against cytoplasmic E-cadherin C36 or β- and α-catenins. […] In addition, L-685,458 delayed the ionomycin-induced decrease of cytoskeletal β-catenin and α-catenin and inhibited their release to the soluble cytosol.

CBP = target: T1, CBP (Mus musculus, UniProt P45481); experiment: Nuclear/cytosolic fractionation of transfected L cells (Western blot); assay type: cell-based
T1 construct: a process that relies on endogenous CBP and CREB; endogenous in cells; host or cells: L cells transfected with vector or pN-Cad/CTF2
Procedure: Subcellular fractionation. Transfected cells were washed in PBS, placed into 1 ml of buffer A (20 mM Tris-HCl, pH 7.5, 0.25 M sucrose, 10 mM EGTA, 2 mM EDTA, Ix Complete protease inhibitor cocktail), and then passed through a 27 gauge needle 10 times. Obtained lysates were centrifuged at 500×g for 10 minutes and pellets (nuclear fraction) were washed twice with 1 ml of buffer A containing 0.1% Triton X-100 and solubilized by sonication in RIPA buffer. Supernatants were centrifuged at 120,000×g for 45 minutes at 4° C. to separate cytosolic and crude membrane fractions. A 50 μg protein aliquot from the nuclear and cytosolic fractions was analyzed on WBs.
To determine how N-Cad/CTF2 affects CREB-mediated transcription, the following experiments were performed. L cells transfected either with vector (vector) or pN-Cad/CTF2 (N-Cad/CTF2) plasmids were fractionated into nuclear and cytosolic fractions, and probed on WBs with anti-CBP (FIG. 11A, panel a), anti-N-cadherin (FIG. 11A, panel b), anti-β-tubulin (FIG. 11A, panel c) or anti-phosphorylated CREB (P-CREB; FIG. 11A, panel d) antibodies. Extract from pN-Cad/CTF2-transfected L cells was immunoprecipitated either with non-immune serum (NI) or with antibodies against CBP (CBP), β-tubulin (β-Tub), E-cadherin (C36) or N-cadherin (C32). Obtained IPs were probed with anti-CBP (FIG. 11B, upper panel), anti-N-cadherin (FIG. 11B, middle panel) or anti-β-tubulin (FIG. 11B, lower panel) antibodies. For reference, cell lysate was also probed (FIG. 11B, first lane). L cells transiently transfected with pN-Cad/CTF2 were analyzed by immunofluorescence staining. Cells were triple-labeled with DAPI (blue), anti-CBP (red) and anti-N-cadherin (C32; green) antibodies. Nuclear extract from pN-Cad/CTF2-transfected L cells were incubated with biotinylated double-stranded DNA probes containing binding sequence for either CREB (FIG. 11C, left panel) or MEF-1 (FIG. 11C, right panel). […]

T1 sequence (P45481 whole entry): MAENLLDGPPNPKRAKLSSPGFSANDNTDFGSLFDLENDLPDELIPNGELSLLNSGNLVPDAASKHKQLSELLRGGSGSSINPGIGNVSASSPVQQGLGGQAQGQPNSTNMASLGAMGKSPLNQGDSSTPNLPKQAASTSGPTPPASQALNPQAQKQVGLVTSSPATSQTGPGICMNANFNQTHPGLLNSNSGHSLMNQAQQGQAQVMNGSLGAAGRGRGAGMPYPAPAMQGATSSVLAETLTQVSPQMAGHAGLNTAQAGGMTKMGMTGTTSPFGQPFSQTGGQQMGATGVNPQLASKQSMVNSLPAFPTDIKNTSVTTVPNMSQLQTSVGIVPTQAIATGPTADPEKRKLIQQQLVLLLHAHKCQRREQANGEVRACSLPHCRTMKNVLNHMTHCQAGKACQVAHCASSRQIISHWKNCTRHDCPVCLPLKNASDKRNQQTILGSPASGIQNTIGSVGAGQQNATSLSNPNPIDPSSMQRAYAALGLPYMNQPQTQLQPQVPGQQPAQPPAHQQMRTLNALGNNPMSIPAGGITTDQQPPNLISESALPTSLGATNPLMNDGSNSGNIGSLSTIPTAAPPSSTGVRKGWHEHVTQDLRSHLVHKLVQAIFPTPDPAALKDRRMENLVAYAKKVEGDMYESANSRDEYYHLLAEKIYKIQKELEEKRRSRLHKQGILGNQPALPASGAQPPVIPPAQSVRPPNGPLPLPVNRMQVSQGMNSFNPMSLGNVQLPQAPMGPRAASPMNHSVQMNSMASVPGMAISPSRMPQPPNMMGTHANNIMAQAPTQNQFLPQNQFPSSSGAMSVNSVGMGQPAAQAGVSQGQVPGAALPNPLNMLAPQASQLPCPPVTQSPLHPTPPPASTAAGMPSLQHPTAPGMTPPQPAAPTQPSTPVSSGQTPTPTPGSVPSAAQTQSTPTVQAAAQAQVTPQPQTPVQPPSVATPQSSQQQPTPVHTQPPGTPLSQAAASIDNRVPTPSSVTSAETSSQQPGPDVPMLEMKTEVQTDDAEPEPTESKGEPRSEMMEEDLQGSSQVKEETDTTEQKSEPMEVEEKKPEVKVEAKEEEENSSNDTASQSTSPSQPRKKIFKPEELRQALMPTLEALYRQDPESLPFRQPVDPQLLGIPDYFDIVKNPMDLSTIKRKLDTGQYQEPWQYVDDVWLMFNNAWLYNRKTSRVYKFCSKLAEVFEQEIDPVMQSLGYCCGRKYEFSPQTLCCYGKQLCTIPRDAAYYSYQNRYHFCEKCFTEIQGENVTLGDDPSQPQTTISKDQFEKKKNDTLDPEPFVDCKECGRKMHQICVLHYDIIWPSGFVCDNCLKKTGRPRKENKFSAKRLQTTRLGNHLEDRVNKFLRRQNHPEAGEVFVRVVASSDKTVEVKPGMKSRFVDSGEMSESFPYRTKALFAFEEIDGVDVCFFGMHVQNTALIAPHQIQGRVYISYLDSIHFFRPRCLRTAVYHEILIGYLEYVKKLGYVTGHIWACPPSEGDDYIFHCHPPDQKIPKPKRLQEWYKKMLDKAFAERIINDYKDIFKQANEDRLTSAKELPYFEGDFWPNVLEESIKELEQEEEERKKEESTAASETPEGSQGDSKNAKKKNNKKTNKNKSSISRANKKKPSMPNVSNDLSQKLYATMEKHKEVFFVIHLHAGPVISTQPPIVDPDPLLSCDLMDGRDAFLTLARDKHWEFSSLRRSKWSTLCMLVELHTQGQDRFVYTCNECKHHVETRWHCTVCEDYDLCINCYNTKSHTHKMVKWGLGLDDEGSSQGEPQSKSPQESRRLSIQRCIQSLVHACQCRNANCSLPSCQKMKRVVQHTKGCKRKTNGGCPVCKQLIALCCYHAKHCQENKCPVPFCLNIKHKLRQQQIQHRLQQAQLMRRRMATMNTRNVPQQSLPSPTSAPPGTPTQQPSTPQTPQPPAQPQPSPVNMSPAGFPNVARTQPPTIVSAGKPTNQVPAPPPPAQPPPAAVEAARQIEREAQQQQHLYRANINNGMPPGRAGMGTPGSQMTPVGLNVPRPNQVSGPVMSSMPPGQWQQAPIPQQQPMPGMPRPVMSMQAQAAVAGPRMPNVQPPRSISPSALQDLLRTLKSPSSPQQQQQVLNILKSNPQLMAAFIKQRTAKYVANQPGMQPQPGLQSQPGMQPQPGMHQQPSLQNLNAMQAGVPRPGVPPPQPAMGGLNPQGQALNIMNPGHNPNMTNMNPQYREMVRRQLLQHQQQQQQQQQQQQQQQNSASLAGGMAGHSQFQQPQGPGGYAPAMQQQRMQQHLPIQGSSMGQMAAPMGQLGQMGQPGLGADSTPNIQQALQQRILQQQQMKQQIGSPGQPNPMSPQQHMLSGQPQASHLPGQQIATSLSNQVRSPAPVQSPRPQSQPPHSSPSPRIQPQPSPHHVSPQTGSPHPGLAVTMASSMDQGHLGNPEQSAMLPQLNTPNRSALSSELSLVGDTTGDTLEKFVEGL

| Molecule | 40 kDa peptide N-Cad/CTF1 (N-cadherin) | ionomycin-induced decrease of cytoskeletal β-catenin and α-catenin [1] | ionomycin-induced degradation of the full length E-cadherin [1] | ionomycin-induced metabolism of cytoskeletal E-Cad/CTF1 [1] | production of soluble cytosolic E-Cad/CTF2 [1] | release of β-catenin and α-catenin to the soluble cytosol [1] | change of CREB phosphorylation (CBP; N-Cad/CTF2 overexpression, FIG. 11A panel d) | localization of phosphorylated CREB (CBP; transfection with N-Cad/CTF2, FIG. 11A panel d) | nuclear and cytosolic CBP (CBP; transfection with N-Cad/CTF2 vs vector, FIG. 11A) |
| --- | --- | --- | --- | --- | --- | --- | --- | --- | --- |
| CC(C)C[C@H](NC(=O)[C@H](Cc1ccccc1)C[C@@H](O)[C@H](Cc1ccccc1)NC(=O)OC(C)(C)C)C(=O)N[C@@H](Cc1ccccc1)C(N)=O [L-685,458] | accumulates | delayed | partially inhibited | blocked | abolished | inhibited |  |  |  |
| B1 |  |  |  |  |  |  | not detected | no effects | nuclear CBP decreased with a concomitant increase in cytosolic CBP |
